Experimental data from patent US20070258941A1, “Methods and compositions for remediation of disc herniation by modifying structure” (priority 2006, published 2007).
Values joined by “and” are separate entries in the source; they are usually repeats but may differ in a detail not shown here. Equal values may be shown once.

How the values were obtained:
[1] = tested on: rabbit lumbar intervertebral discs; assay: Effect of polylysine on disc height (disc height index, DHI) after injection into rabbit lumbar discs; type: in vivo; conditions: for L2/3 DHI, Average / L2/3 DHI: injected disc L2/3; for L2/3 DHI, Average / L4/5 DHI, Average: average of six animals; for L2/3 DHI, Average / L2/3 DHI / L4/5 DHI, Average / L4/5 DHI: untreated L3/4 disc = 100; for L2/3 DHI / L4/5 DHI: individual animals 1-6; for L4/5 DHI, Average / L4/5 DHI: injected disc L4/5
Experimental: FIG. 1 is a set of bar graphs showing intervertebral disc heights in rabbits injected with 30-70 kDa polylysine at each of lumbar 2/3 and 4/5, compared with heights of control untreated lumbar discs 3/4 (100%). Disc heights were measured at each of two weeks (FIG. 1, Panel A), four weeks (FIG. 1, Panel B), and six weeks (FIG. 1, Panel C). A decrease in the DHI of approximately 20% was maintained for 6 weeks in this study.
Statistical Analyses: Statistical analyses were performed by one way ANOVA with Fisher's PLSD test as a post hoc test.
Rabbit discs (six animals) were injected with 30-70 kDa polylysine into discs L4/5 and L2/3. As controls, the L3/4 discs were untreated in each of the animals.
Disc height was measured at each of 2, 4 and 6 weeks after injection, and the normalized percentages of starting disc heights observed are shown in FIG. 1. Disc height was reduced by the treatment to about 80% of the initial values, and the decrease of 20% was maintained for the full 6-week observation period.

[2] = tested on: bovine cartilage explants; assay: Distribution kinetics / permeation of FITC-labeled polylysine into cartilage explants (fluorescence of cryostat sections); type: in vitro ADME; conditions: for time for permeation to achieve maximal levels (completed): FITC-labeled polymer, cartilage explants submerged in solution
Experimental: FIG. 2 is a set of photographs of bovine cartilage explants that were incubated with FITC-labeled polylysine (15-30 kDa in size, panels F, G, H, I, and J; and 30-70 kDa in size, panels K, L, M, N, and O) or control untreated cartilage (FIG. 2 panels A, B, C, D, and E). Photographs were taken at each of time points 0.5 hour (FIG. 2, panels A, F, and K), 1.0 hour (FIG. 2, panels B, G, and L), 3 hours (FIG. 2, panels C, H, and M), 7 hours (FIG. 2, panels D, I, and N) and 12 hours (FIG. 2, panels E, J, and O).
After a predetermined time, tissue was washed, frozen, and 10 micron sections were produced using a cryostat.

Substance | L2/3 DHI, Average ([1]; 2 weeks after injection) [%] | L2/3 DHI ([1]; 2 weeks after injection) | L4/5 DHI, Average ([1]; 2 weeks after injection) [%] | L4/5 DHI ([1]; 2 weeks after injection) | L2/3 DHI, Average ([1]; 4 weeks after injection) [%] | L2/3 DHI ([1]; 4 weeks after injection) | L4/5 DHI, Average ([1]; 4 weeks after injection) [%] | L4/5 DHI ([1]; 4 weeks after injection) | L2/3 DHI, Average ([1]; 6 weeks after injection) [%] | L2/3 DHI ([1]; 6 weeks after injection) | L4/5 DHI, Average ([1]; 6 weeks after injection) [%] | L4/5 DHI ([1]; 6 weeks after injection) | disc height after treatment, of the initial values ([1]; rabbit discs L2/3 and L4/5, 2, 4 and 6 weeks after injection) | time for permeation to achieve maximal levels (completed) [2] [h] | rapidity of permeation of cartilage ([2]; compared to the longer chain length (30-70 kDa))
polylysine [30-70 kDa polylysine] | 79.48 | 77.13% and 68.43% and 70.29% and 91.98% and 80.01% and 89.04% | 78.67 | 90.03% and 77.07% and 77.69% and 72.34% and 81.34% and 73.56% | 74.86 | 79.11% and 93.42% and 80.98% and 66.08% and 63.83% and 65.74% | 79.65 | 79.68% and 93.65% and 66.64% and 79.43% and 73.86% and 84.63% | 79.51 | 78.77% and 93.30% and 96.63% and 65.59% and 73.66% and 69.09% | 81.57 | 87.13% and 96.43% and 81.53% and 83.27% and 61.60% and 79.46% | about 80% | – | –
polylysine [longer polymer] | – | – | – | – | – | – | – | – | – | – | – | – | – | 7 to 12 | –
polylysine [shorter cationic polymer] | – | – | – | – | – | – | – | – | – | – | – | – | – | 3 to 7 | enhanced
